1 molecule from patent US11472812B2, “Anti-cancer compounds targeting Ral GTPases and methods of using the same” (The Regents of the University of Colorado, a body corporate, priority 2014, dated 2022) can be followed below.

Entries after “also recorded” stand apart in the source; their conditions may differ.

Series [1] deals with H2122 human lung cancer cells. As to the kind of experiment: Cellular uptake, LC/MS-MS of cell lysates. The settings on record: 10 μM, 1-60 min. Format: in vitro ADME. On the procedure: To quantitate how well the test compounds get into cells, H2122 human lung cancer cells were seeded at 3×10^5 cells per well in 6-well plates and let sit for 16 h. Compounds (10 μM) were individually dosed in triplicate; cells were then collected into 500 μl ice-cold ACN:MeOH:H2O (1:1:1) at different time points (1, 5, 15, 30 and 60 min). Drug concentrations in cell lysates were then determined using LC/MS-MS methods as described with respect to the pharmacokinetic and pharmacodynamic studies in mice, described in detail in Example 5, below.

The test system of series [2] is H2122 human lung cancer cells. Description: H2122 xenograft tumor growth. The format is in vivo, nude mice. The settings on record: i.p. daily except weekends, initiated 24 h after inoculation; RBC8 50 mg/kg/d; BQU57 and BQU85 5, 10, 20, and 50 mg/kg/d. On the procedure: We next determined compound entry into tumor tissue. To do so, athymic nude mice (Ncr nu/nu; National Cancer Institute, Fredrick, Md.) were received at 5 to 6 weeks of age and were allowed to acclimate for 2 weeks in sterile micro isolator cages with constant temperature and humidity. Mice had free access to food and water. H2122 cells in log-phase growth were harvested on the day of use. Cells were suspended in un-supplemented RPMI 1640 medium and 0.1 mL (2×10^5 cells) was injected s.c. four sites per mice. For H358 xenografts, cells (5×10^6) were mixed with matrigel (20% final concentration) and 0.1 mL was inoculated s.c. per site. After cell inoculation, mice were monitored daily, weighed twice weekly and caliper measurements begun when tumors visible. Tumor volume was calculated by (L×W2)/2, where L is longer measurement of tumor and W is the smaller tumor measurement. Drug treatment started the day after inoculation. Compounds were dissolved in DMSO and injected i.p. daily except weekends at 10/20/50 mg/kg. […] The effect of the Ral inhibitors on xenograft tumor growth was then tested in nude mice. Mice were inoculated subcutaneously with H2122 human lung cancer cells and treated intraperitoneally with 50 mg/kg/d (except weekends) of RBC8 24 h post inoculation.

On to `Cn1nc(-c2ccccc2)c2c1OC(N)=C(C#N)C2c1ccc(OC(F)(F)F)cc1` (centres unmarked) [BQU85, 6-amino-1-methyl-3-phenyl-4-(4-(trifluoromethoxy)phenyl)-1,4-dihydropyrano[2,3-c]pyrazole-5-carbonitrile], for which the cellular uptake entry in series [1] is “readily get into cells”. Also, in series [2], the “xenograft tumor growth inhibition” value is given as “dose-dependent growth inhibition effects were observed; also recorded: inhibited xenograft tumor growth”.
